In the test the target is LXRβ (Homo sapiens (Human), UniProt P55055). Briefly: In vitro assay LXRβ: PathHunter NHR CHO cells, LXRβ / Steroid Receptor Co-activator Peptide enzyme fragment complementation. In kind it is cell-based. The conditions noted are these: PathHunter NHR CHO cells, full-length human LXRβ and SRCP, chemiluminescent signal; read-out: LXRβ PPI. On the procedure: PathHunter NHR CHO cells stably transfected with tagged full-length human LXRβ and a nuclear fusion protein containing Steroid Receptor Co-activator Peptide (SRCP). The full-length human LXRβ was tagged with the ProLink™ component of the DiscoverX Enzyme Fragment Complementation (EFC) system and the SRCP domain is fused to the enzyme acceptor component (EA) expressed in the nucleus. Cells were seeded in a total volume of 20 μL into white walled, 384-well microplates and incubated at 37° C. overnight prior to testing. Assay media contained charcoal-dextran filtered serum to reduce the level of hormones present. Final assay vehicle concentration was 1%. […] Microplates were read following signal generation with a PerkinElmer Envision instrument for chemiluminescent signal detection.
Sequence of LXRβ (P55055 whole entry, the tested form may be a part): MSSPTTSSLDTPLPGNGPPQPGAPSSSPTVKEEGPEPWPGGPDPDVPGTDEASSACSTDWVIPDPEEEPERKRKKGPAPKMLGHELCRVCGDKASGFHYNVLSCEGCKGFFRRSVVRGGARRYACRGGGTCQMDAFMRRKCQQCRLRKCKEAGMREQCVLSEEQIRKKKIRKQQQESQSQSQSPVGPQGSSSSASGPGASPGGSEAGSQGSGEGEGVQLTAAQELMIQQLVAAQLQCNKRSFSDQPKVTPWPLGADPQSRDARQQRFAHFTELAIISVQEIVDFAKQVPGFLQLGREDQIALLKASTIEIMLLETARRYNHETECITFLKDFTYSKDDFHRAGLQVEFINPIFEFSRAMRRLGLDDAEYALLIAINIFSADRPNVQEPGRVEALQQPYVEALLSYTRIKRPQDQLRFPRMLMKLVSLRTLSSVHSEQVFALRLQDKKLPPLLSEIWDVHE
For the molecule `CC(=O)N1CCC(N(C)C(=O)CC[C@@H](C)[C@H]2CC[C@H]3[C@@H]4CC=C5C[C@@H](O)CC[C@]5(C)[C@H]4CC[C@]23C)CC1` [Example 407, (4R)-4-[(1R,3aS,3bS,7S,9aR,9bS,11aR)-7-hydroxy-9a,11a-dimethyl-1H,2H,3H,3aH,3bH,4H,6H,7H,8H,9H,9aH,9bH,10H,11H,11aH-cyclopenta[a]phenanthren-1-yl]-N-(1-acetylpiperidin-4-yl)-N-methylpentanamide], the EC50 is over 10 µM.

`CNC(=O)C(=O)O[C@@H](C)[C@H]1CC[C@H]2[C@@H]3CC=C4C[C@@H](O)CC[C@]4(C)[C@H]3CC[C@]12C` [Example 145, (S)-1-((3S,8S,9S,10R,13S,14S,17S)-3-hydroxy-10,13-dimethyl-2,3,4,7,8,9,10,11,12,13,14,15,16,17-tetradecahydro-1H-cyclopenta[a]phenanthren-17-yl)ethyl 2-(methylamino)-2-oxoacetate]: the EC50 was over 10 µM.

`CC(=O)N1CCN(C(=O)CC[C@@H](C)[C@H]2CC[C@H]3[C@@H]4CC=C5C[C@@H](O)CC[C@]5(C)[C@H]4CC[C@]23C)C[C@@H]1C` [Example 427, (R)-1-((S)-4-acetyl-3-methylpiperazin-1-yl)-4-((3S,8S,9S,10R,13R,14S,17R)-3-hydroxy-10,13-dimethyl-2,3,4,7,8,9,10,11,12,13,14,15,16,17-tetradecahydro-1H-cyclopenta[a]phenanthren-17-yl)pentan-1-one]: the EC50 is over 10 µM.

Take `C[C@@H]1CCCN(C(=O)CC[C@@H](C)[C@H]2CC[C@H]3[C@@H]4CC=C5C[C@@H](O)CC[C@]5(C)[C@H]4CC[C@]23C)O1` [Example 60, (R)-4-((3S,8S,9S,10R,13R,14S,17R)-3-hydroxy-10,13-dimethyl-2,3,4,7,8,9,10,11,12,13,14,15,16,17-tetradecahydro-1H-cyclopenta[a]phenanthren-17-yl)-1-((R)-6-methyl-1,2-oxazinan-2-yl)pentan-1-one]: the EC50 was in the range of 0.25 to 1 µM.

Turning to `CC(NS(C)(=O)=O)C1CCN(C(=O)CC[C@@H](C)[C@H]2CC[C@H]3[C@@H]4CC=C5C[C@@H](O)CC[C@]5(C)[C@H]4CC[C@]23C)CC1` (stereo partly drawn) [Example 229, N-(1-(1-((R)-4-((3S,8S,9S,10R,13R,14S,17R)-3-hydroxy-10,13-dimethyl-2,3,4,7,8,9,10,11,12,13,14,15,16,17-tetradecahydro-1H-cyclopenta[a]phenanthren-17-yl)pentanoyl)piperidin-4-yl)ethyl)methanesulfonamide], the EC50 was over 10 µM.

`CC(=O)N1CCN(C(=O)CC[C@@H](C)[C@H]2CC[C@H]3[C@@H]4CC=C5C[C@@H](O)CC[C@]5(C)[C@H]4CC[C@]23C)C[C@H]1C` [Example 278, (R)-1-((R)-4-acetyl-3-methylpiperazin-1-yl)-4-((3S,8S,9S,10R,13R,14S,17R)-3-hydroxy-10,13-dimethyl-2,3,4,7,8,9,10,11,12,13,14,15,16,17-tetradecahydro-1H-cyclopenta[a]phenanthren-17-yl)pentan-1-one]: the EC50 is over 10 µM.

Consider `CC(NS(C)(=O)=O)C1CCN(C(=O)CC[C@@H](C)[C@H]2CC[C@H]3[C@@H]4CC=C5C[C@@H](O)CC[C@]5(C)[C@H]4CC[C@]23C)CC1` (stereo partly drawn) [Example 475, N-(1-(1-((R)-4-((3S,8S,9S,10R,13R,14S,17R)-3-hydroxy-10,13-dimethyl-2,3,4,7,8,9,10,11,12,13,14,15,16,17-tetradecahydro-1H-cyclopenta[a]phenanthren-17-yl)pentanoyl)piperidin-4-yl)ethyl)methanesulfonamide], for which the EC50 was over 10 µM.

In the case of `C[C@H](CCC(=O)N1CCC[C@@H](Oc2ccncn2)C1)[C@H]1CC[C@H]2[C@@H]3CC=C4C[C@@H](O)CC[C@]4(C)[C@H]3CC[C@]12C` [Example 217, (4R)-4-[(1R,3aS,3bS,7S,9aR,9bS,11aR)-7-hydroxy-9a,11a-dimethyl-1H,2H,3H,3aH,3bH,4H,6H,7H,8H,9H,9aH,9bH,10H,11H,11aH-cyclopenta[a]phenanthren-1-yl]-1-[(3R)-3-(pyrimidin-4-yloxy)piperidin-1-yl]pentan-1-one], the EC50 is over 10 µM.

With `C[C@H](CCC(=O)N1CCC[C@H](Oc2ccncn2)C1)[C@H]1CC[C@H]2[C@@H]3CC=C4C[C@@H](O)CC[C@]4(C)[C@H]3CC[C@]12C` [Example 218, (R)-4-((3S,8S,9S,10R,13R,14S,17R)-3-hydroxy-10,13-dimethyl-2,3,4,7,8,9,10,11,12,13,14,15,16,17-tetradecahydro-1H-cyclopenta[a]phenanthren-17-yl)-1-((S)-3-(pyrimidin-4-yloxy)piperidin-1-yl)pentan-1-one], the EC50 was 0.25 to 1 µM.

For the molecule `C[C@H](CCC(=O)N1CCC(C)(O)CC1)[C@H]1CC[C@H]2[C@@H]3CC=C4C[C@@H](O)CC[C@]4(C)[C@H]3CC[C@]12C` [Example 6, (R)-4-((3S,8S,9S,10R,13R,14S,17R)-3-hydroxy-10,13-dimethyl-2,3,4,7,8,9,10,11,12,13,14,15,16,17-tetradecahydro-1H-cyclopenta[a]phenanthren-17-yl)-1-(4-hydroxy-4-methylpiperidin-1-yl)pentan-1-one], the EC50 lay within 0.25 to 1 µM.

For the molecule `CON(C(=O)CC[C@@H](C)[C@H]1CC[C@H]2[C@@H]3CC=C4C[C@@H](O)CC[C@]4(C)[C@H]3CC[C@]12C)C(C)C` [Example 15, (R)-4-((3S,8S,9S,10R,13R,14S,17R)-3-hydroxy-10,13-dimethyl-2,3,4,7,8,9,10,11,12,13,14,15,16,17-tetradecahydro-1H-cyclopenta[a]phenanthren-17-yl)-N-isopropyl-N-methoxypentanamide], the EC50 was 1 to 10 µM.

On to `COC(=O)N1CCN(C(=O)OC[C@@H](C)[C@H]2CC[C@H]3[C@@H]4CC=C5C[C@@H](O)CC[C@]5(C)[C@H]4CC[C@]23C)CC1` [Example 238, 1-(2S)-2-[(1R,3aS,3bS,7S,9aR,9bS,11aS)-7-hydroxy-9a,11a-dimethyl-1H,2H,3H,3aH,3bH,4H,6H,7H,8H,9H,9aH,9bH,10H,11H,11aH-cyclopenta[a]phenanthren-1-yl]propyl 4-methyl piperazine-1,4-dicarboxylate], for which the EC50 was over 10 µM.

With `C[C@H](CCc1ccnnc1)[C@H]1CC[C@H]2[C@@H]3CC=C4C[C@@H](O)CC[C@]4(C)[C@H]3CC[C@]12C` [Example 170, (1R,3aS,3bS,7S,9aR,9bS,11aR)-9a,11a-dimethyl-1-[(2R)-4-(pyridazin-4-yl)butan-2-yl]-1H,2H,3H,3aH,3bH,4H,6H,7H,8H,9H,9aH,9bH,10H,11H,11aH-cyclopenta[a]phenanthren-7-ol], the EC50 is over 10 µM.

Take `C[C@H](CCC(=O)N1CC[C@H](Oc2ccncn2)C1)[C@H]1CC[C@H]2[C@@H]3CC=C4C[C@@H](O)CC[C@]4(C)[C@H]3CC[C@]12C` [Example 216, (4R)-4-[(1R,3aS,3bS,7S,9aR,9bS,11aR)-7-hydroxy-9a,11a-dimethyl-1H,2H,3H,3aH,3bH,4H,6H,7H,8H,9H,9aH,9bH,10H,11H,11aH-cyclopenta[a]phenanthren-1-yl]-1-[(3S)-3-(pyrimidin-4-yloxy)pyrrolidin-1-yl]pentan-1-one]: the EC50 was over 10 µM.
